Measurements as given in the supplement of paper PMC10307832.

How the values were obtained:
Assay in all cases: relative viability (nuclei count vs DMSO), 5 days (fraction); higher = more cells survive
Alisertib + Navitoclax = compound: COc1cc(Nc2ncc3c(n2)-c2ccc(Cl)cc2C(c2c(F)cccc2OC)=NC3)ccc1C(=O)O [Alisertib] + CC1(C)CCC(c2ccc(Cl)cc2)=C(CN2CCN(c3ccc(C(=O)NS(=O)(=O)c4ccc(N[C@H](CCN5CCOCC5)CSc5ccccc5)c(S(=O)(=O)C(F)(F)F)c4)cc3)CC2)C1 [Navitoclax] (partner 0.5 µM)
How it was run: (§1)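 Lung cancer cell lines were pin-tool dosed in 1536-well plates on the day after seeding, with either a lone drug or a fixed anchor-drug dose plus five library-drug doses (not always all listed) in √10 steps. Nuclei were counted on 4× images after 5 days. Relative viability is the ratio of treated-well to vehicle-well nuclei counts, with each value a median of duplicate plates.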

Alisertib + Luminespib = compound: COc1cc(Nc2ncc3c(n2)-c2ccc(Cl)cc2C(c2c(F)cccc2OC)=NC3)ccc1C(=O)O [Alisertib] + CCNC(=O)c1noc(-c2cc(C(C)C)c(O)cc2O)c1-c1ccc(CN2CCOCC2)cc1 [Luminespib] (partner 0.01 µM)
How it was run: as §1

Alisertib + Foretinib = compound: COc1cc(Nc2ncc3c(n2)-c2ccc(Cl)cc2C(c2c(F)cccc2OC)=NC3)ccc1C(=O)O [Alisertib] + COc1cc2c(Oc3ccc(NC(=O)C4(C(=O)Nc5ccc(F)cc5)CC4)cc3F)ccnc2cc1OCCCN1CCOCC1 [Foretinib] (partner 0.25 µM)
How it was run: as §1

Alisertib + Linsitinib = compound: COc1cc(Nc2ncc3c(n2)-c2ccc(Cl)cc2C(c2c(F)cccc2OC)=NC3)ccc1C(=O)O [Alisertib] + C[C@]1(O)C[C@@H](c2nc(-c3ccc4ccc(-c5ccccc5)nc4c3)c3c(N)nccn32)C1 [Linsitinib] (partner 1 µM)
How it was run: as §1

| Cell Line | relative viability (Alisertib + Navitoclax; first compound 0.005 µM) | relative viability (Alisertib + Navitoclax; first compound 0.01581 µM) | relative viability (Alisertib + Navitoclax; first compound 0.05 µM) | relative viability (Alisertib + Navitoclax; first compound 0.1581 µM) | relative viability (Alisertib + Navitoclax; first compound 0.5 µM) | relative viability (Alisertib + Luminespib; first compound 0.005 µM) | relative viability (Alisertib + Luminespib; first compound 0.01581 µM) | relative viability (Alisertib + Luminespib; first compound 0.05 µM) | relative viability (Alisertib + Luminespib; first compound 0.1581 µM) | relative viability (Alisertib + Luminespib; first compound 0.5 µM) | relative viability (Alisertib + Foretinib; first compound 0.005 µM) | relative viability (Alisertib + Foretinib; first compound 0.01581 µM) | relative viability (Alisertib + Foretinib; first compound 0.05 µM) | relative viability (Alisertib + Foretinib; first compound 0.1581 µM) | relative viability (Alisertib + Foretinib; first compound 0.5 µM) | relative viability (Alisertib + Linsitinib; first compound 0.005 µM) | relative viability (Alisertib + Linsitinib; first compound 0.01581 µM) | relative viability (Alisertib + Linsitinib; first compound 0.05 µM) | relative viability (Alisertib + Linsitinib; first compound 0.1581 µM) | relative viability (Alisertib + Linsitinib; first compound 0.5 µM) |
| --- | --- | --- | --- | --- | --- | --- | --- | --- | --- | --- | --- | --- | --- | --- | --- | --- | --- | --- | --- | --- |
| NCI-H1666 | 0.94 | 0.779 | 0.435 | 0.281 | 0.291 | 0.879 | 0.801 | 0.639 | 0.471 | 0.379 | 0.841 | 0.82 | 0.597 | 0.415 | 0.403 | 0.815 | 0.812 | 0.41 | 0.317 | 0.253 |
| NCI-H1734 | 0.851 | 0.782 | 0.366 | 0.164 | 0.0931 | 0.172 | 0.214 | 0.149 | 0.146 | 0.132 | 0.841 | 0.731 | 0.314 | 0.327 | 0.174 | 0.869 | 0.86 | 0.469 | 0.334 | 0.213 |
| NCI-H1755 | 0.928 | 0.99 | 0.682 | 0.356 | 0.181 | 0.463 | 0.409 | 0.255 | 0.189 | 0.199 | 0.85 | 0.846 | 0.615 | 0.532 | 0.325 | 1 | 0.947 | 0.62 | 0.5 | 0.271 |
| NCI-H1793 | 0.428 | 0.339 | 0.247 | 0.17 | 0.148 | 0.171 | 0.147 | 0.156 | 0.127 | 0.136 | 0.715 | 0.286 | 0.232 | 0.194 | 0.138 | 0.811 | 0.923 | 0.373 | 0.276 | 0.197 |
| NCI-H1915 | 0.686 | 0.577 | 0.275 | 0.235 | 0.13 | 0.684 | 0.452 | 0.151 | 0.148 | 0.185 | 0.998 | 0.907 | 0.431 | 0.463 | 0.236 | 0.984 | 0.948 | 0.504 | 0.354 | 0.224 |
| NCI-H1944 | 1.06 | 1.01 | 0.969 | 0.415 | 0.194 | 0.778 | 0.676 | 0.541 | 0.411 | 0.15 | 0.845 | 0.818 | 0.633 | 0.386 | 0.227 | 1.23 | 1.33 | 0.971 | 0.508 | 0.265 |
| NCI-H1975 | 1.14 | 1.01 | 0.503 | 0.344 | 0.175 | 0.199 | 0.23 | 0.213 | 0.177 | 0.168 | 0.816 | 0.989 | 0.501 | 0.204 | 0.165 | 0.917 | 0.861 | 0.484 | 0.331 | 0.188 |
| NCI-H1993 | 1.12 | 1.04 | 0.463 | 0.499 | 0.542 | 0.891 | 0.791 | 0.558 | 0.456 | 0.492 | 0.772 | 0.849 | 0.525 | 0.484 | 0.557 | 0.685 | 0.659 | 0.606 | 0.613 | 0.578 |
| NCI-H2009 | 1.08 | 1.11 | 0.349 | 0.302 | 0.105 | 0.971 | 0.972 | 0.395 | 0.292 | 0.264 | 1.19 | 1.05 | 0.618 | 0.429 | 0.248 | 1.24 | 1.14 | 0.672 | 0.427 | 0.213 |
| NCI-H2023 | 0.955 | 0.885 | 0.656 | 0.282 | 0.132 | 0.807 | 0.671 | 0.321 | 0.127 | 0.0912 | 0.936 | 0.743 | 0.501 | 0.46 | 0.0916 | 0.653 | 0.505 | 0.355 | 0.285 | 0.108 |
| NCI-H2085 | 1.15 | 1.03 | 0.401 | 0.278 | 0.247 | 0.419 | 0.341 | 0.309 | 0.342 | 0.329 | 1.03 | 0.812 | 0.309 | 0.259 | 0.228 | 0.876 | 0.85 | 0.516 | 0.389 | 0.281 |
| NCI-H2087 | 0.868 | 0.742 | 0.164 | 0.153 | 0.153 | 0.191 | 0.136 | 0.155 | 0.16 | 0.115 | 1.12 | 0.856 | 0.176 | 0.172 | 0.119 | 0.866 | 0.669 | 0.276 | 0.236 | 0.228 |
| NCI-H2126 | 0.819 | 0.874 | 0.574 | 0.276 | 0.266 | 0.785 | 0.834 | 0.601 | 0.274 | 0.285 | 1.08 | 1.02 | 0.455 | 0.294 | 0.382 | 0.709 | 0.752 | 0.467 | 0.342 | 0.256 |
| NCI-H2228 | 0.829 | 0.672 | 0.564 | 0.0729 | 0.0587 | 0.111 | 0.117 | 0.112 | 0.144 | 0.186 | 0.734 | 0.642 | 0.493 | 0.0956 | 0.114 | 0.55 | 0.936 | 0.317 | 0.12 | 0.095 |
| NCI-H2347 | 0.742 | 0.695 | 0.459 | 0.42 | 0.329 | 0.275 | 0.287 | 0.429 | 0.317 | 0.422 | 0.733 | 0.84 | 0.863 | 0.454 | 0.459 | 0.967 | 0.954 | 0.812 | 0.729 | 0.478 |
